Test results: patent US9592307B2, “Compound and photoacoustic imaging contrast medium containing the compound” (CANON KABUSHIKI KAISHA, priority 2012, dated 2017)
Ends that are not written are not given here.

Tests used:
[1] = tested on: Colon 26 mouse colon cancer cells containing artificially introduced HER2 genes; assay: Tumor accumulation of PEG including capture molecule, Colon 26 (HER2) versus Colon 26 (WT) tumors; assay type: in vivo; settings: intravenous, 13 nmol in terms of ICG, 24 hours after administration
Text: In the evaluation of tumor accumulation, female outbred line BALB/c Slc-nu/nu mouse (6 week-old at the time of purchase) (Japan SLC Inc.) was used. The mouse was adapted to an environment in which a diet and drinking water were able to be consumed freely for a week before the mouse was transplanted a tumor, while standard diet and bed were employed. About 1 week before an imaging experiment, 1×10^6 of Colon 26 mouse colon cancer cells (RIKEN) were subcutaneously injected into each of the right shoulder and the right thigh of the mouse and 1×10^6 of Colon 26 mouse colon cancer cells containing artificially introduced HER2 genes were subcutaneously injected into each of the left shoulder and the left thigh of the mouse. All tumors became established until the experiment and the weights of the mice were 17 to 22 g. […] The amount of dye in the cancer tissue was quantified by using IVIS (registered trademark) Imaging System 200 Series (XENOGEN) and measuring the fluorescent intensity of the solution of dye extracted from the tumor tissue and the standard solution for calibration in the state of the plastic tube. […]
In addition, ratios of the amount of accumulation into the Colon 26 mouse colon cancer cells containing artificially introduced HER2 genes relative to the amount of accumulation into the Colon 26 mouse colon cancer cells were calculated and are summarized in Table 12. […]

[2] = rat, ICG administered to the blood alone; cited from earlier work
[3] = Retentivity in blood, Colon 26 tumor-bearing mice; assay type: in vivo, mouse; settings: tail vein, 13 nmol dye, 24 hours after administration
Method: In order to examine the retentivity in blood and the tumor accumulation of the compound prepared as described above, M5k-ICG, M10k-ICG, M20k-ICG, M30k-ICG, M40k-ICG, and D20k-ICG2 were administered to tail veins of tumor-bearing mice which had been transplanted a Colon 26 cell line. The amount of administration was specified to be 13 nmol in terms of the amount of dye.
A blood sample was taken from a mouse 24 hours after administration, and the blood, 1% Triron, and DMSO were mixed at 2:9:9 in a plastic tube. The amount of dye in the blood was quantified by using IVIS (registered trademark) Imaging System 200 Series (produced by Caliper Life Science Inc.) and measuring the fluorescent intensity in the state of the plastic tube. The proportion of the amount of migration of the dye to the blood relative to the amount (dye 13 nmol) of administration (% injected dose: abbreviated to % ID) per unit weight of the blood is shown in Table 8 as the retentivity of the compound in blood (% ID/g). […]
An intravenous injection of 100 microliters (13 nmol in terms of dye) of M20k-ICGATT into a tumor-bearing mouse model was performed, where a Colon 26 cell was subcutaneously transplanted into the BALB/c Slc-nu/nu mouse. The accumulation in the Colon 26 cell mass and the blood 24 hours after the administration was evaluated by the method described in Example 12.

pe-PEG20: PEG ME-200MA (MW 20,000) modified with ICG and peptide MARSGLGGKGSC (also: conjugated to PEG ME-200MA (20 kDa) together with ICG)
Colon26 (HER2)/Colon26 (WT) Ratio of amount of tumor accumulation [1]: 0.76

pe-PEG40: PEG ME-400MA (MW 40,000) modified with ICG and peptide MARSGLGGKGSC (also: conjugated to PEG ME-400MA (40 kDa) together with ICG)
Colon26 (HER2)/Colon26 (WT) Ratio of amount of tumor accumulation [1]: 0.88

CC1(C)C(/C=C/C=C/C=C/C=C2\N(CCCCS(=O)(=O)O)c3ccc4ccccc4c3C2(C)C)=[N+](CCCCS(=O)(=O)[O-])c2ccc3ccccc3c21 [ICG, Indocyanine Green]
Time after administration at which photoacoustic signal is reduced to the same level as that of the blood [2]: several tens of minutes | Retentivity in blood [3]: 0.16 % ID
